Experiments:
Type in all cases: physicochemical
[1] = Test of storage stability in solution; details: 13 mg in 1 mL TFP, brown bottle, 25° C., 3 days; 1250-fold diluted for measurement
Procedure: Each of 13 mg of Complex Compounds (2) to (5), (7), (9) to (11), (13) to (21), (24), (26), (28), (30), (31), and (33) was dissolved in 1 mL of TFP, which was filtered with a filter made of TEFLON (registered trademark) (manufactured by Whatman, having a pore diameter of 0.20 μm), and solutions of Complex Compounds (2) to (5), (7), (9) to (11), (13) to (21), (24), (26), (28), (30), (31), and (33) were respectively obtained. Each of the obtained solutions was transferred to a brown bottle with a lid and stored at 25° C. for 3 days. Before and after the storage stability test, using a spectrophotometer, 1250-fold diluted solutions of Complex Compounds (2) to (5), (7), (9) to (11), (13) to (21), (24), (26), (28), (30), (31), and (33), respectively, were measured for their ultraviolet-visible absorption spectra. […] Here, the absorption maximum wavelength after the storage stability test is the absorption maximum wavelength in the absorption spectrum after the storage stability test.

[2] = Lightfastness test of thin films; details: thin film on glass plate, UV fluorescent lamps 15 W/m^2, 45° C., 10 hours
Source text: Thin films of Complex Compounds (2) to (5), (7), (9) to (11), (13) to (21), (24), (26), (28), (30), (31), and (33) were respectively obtained similarly to the film-forming test except that a glass plate (manufactured by Taiyu Kizai Co., Ltd.; 2 cm×2 cm; thickness: 2 mm) was used as the substrates instead of the plate made of polycarbonate resin. Using a dewpanel light control weather meter DPWL-5R, manufactured by Suga Test Instruments Co., Ltd., which was equipped with ultraviolet fluorescent lamps (SUGA-FS40, manufactured by Suga Test Instruments Co., Ltd., having a peak wavelength of 313 nm and an illuminance distribution of 282 nm to 373 nm), light was irradiated on the thin films with an amount of light of 15 W/m^2 at 45° C. for 10 hours. Ultraviolet-visible absorption spectra of the thin film before and after the lightfastness test were measured using a spectrophotometer.
Here, the absorption maximum wavelength after lightfastness test denotes an absorption maximum wavelength in the absorption spectrum after the lightfastness test.

[3] = Moisture- and heat-resistances test of thin films; details: thin film, 80° C., relative humidity 80%, 100 hours
Procedure: Similarly to the film-forming test, thin films of Complex Compounds (2) to (5), (7), (9) to (11), (13) to (21), (24), (26), (28), (30), (31), and (33) were respectively obtained. Using a constant temperature and humidity chamber, KHWII-40HP, manufactured by Satake Chemical Equipment Mfg Ltd., the thin films were exposed in the atmosphere having a temperature of 80° C. and a relative humidity of 80% for 100 hours. Ultraviolet-visible absorption spectra of the thin films before and after the moisture- and heat-resistances test were measured using a spectrophotometer. […] Here, the absorption maximum wavelength after the moisture- and heat-resistances test denotes the absorption maximum wavelength in an absorption spectrum after the moisture- and heat-resistances test.

SMILES	I^c/I^c0 (absorbance ratio at absorption maximum after/before storage stability test) [1]	Δλmax(c) (change in absorption maximum wavelength) [1] [nm]	I^a/I^a0 (absorbance ratio at absorption maximum after/before lightfastness test) [2]	I^b/I^b0 (absorbance ratio at absorption maximum after/before moisture- and heat-resistances test) [3]	Δλmax(b) (change in absorption maximum wavelength) [3] [nm]
Cc1c(/C=N/[N-]c2nnnn2-c2ccccc2)c([O-])n(CC(C)C)c(=O)c1C#N.Cc1c(/C=N/[N-]c2nnnn2-c2ccccc2)c([O-])n(CC(C)C)c(=O)c1C#N.Cc1c(/C=N/[N-]c2nnnn2-c2ccccc2)c([O-])n(CC(C)C)c(=O)c1C#N.Cc1c(/C=N/[N-]c2nnnn2-c2ccccc2)c([O-])n(CC(C)C)c(=O)c1C#N.[Co+3].[Co+3].c1ccc2c(c1)ccc[n+]2CCCC[n+]1cccc2ccccc21 [Complex Compound (21)]	1.01	0.5	0.87	1.00	0.5
Cc1c(/C=N/[N-]c2nnnn2-c2ccccc2)c([O-])n(Cc2ccccc2)c(=O)c1C#N.Cc1c(/C=N/[N-]c2nnnn2-c2ccccc2)c([O-])n(Cc2ccccc2)c(=O)c1C#N.Cc1c(/C=N/[N-]c2nnnn2-c2ccccc2)c([O-])n(Cc2ccccc2)c(=O)c1C#N.Cc1c(/C=N/[N-]c2nnnn2-c2ccccc2)c([O-])n(Cc2ccccc2)c(=O)c1C#N.[Co+3].[Co+3].c1ccc(CC[N+]23CC[N+](CCc4ccccc4)(CC2)CC3)cc1 [Complex Compound (31)]	1.02	0	0.85	1.00	0
Cc1c(/C=N/[N-]c2nc3ccccc3o2)c([O-])n(Cc2ccccc2)c(=O)c1C#N.Cc1c(/C=N/[N-]c2nc3ccccc3o2)c([O-])n(Cc2ccccc2)c(=O)c1C#N.Cc1c(/C=N/[N-]c2nc3ccccc3o2)c([O-])n(Cc2ccccc2)c(=O)c1C#N.Cc1c(/C=N/[N-]c2nc3ccccc3o2)c([O-])n(Cc2ccccc2)c(=O)c1C#N.[Co+3].[Co+3].c1cc[n+]2c(c1)-c1cccc[n+]1CCC2 [Complex Compound (33)]	1.01	0	0.91	1.00	0
Cc1c(/C=N/[N-]c2nnnn2-c2ccccc2)c([O-])n(CC(C)C)c(=O)c1C#N.Cc1c(/C=N/[N-]c2nnnn2-c2ccccc2)c([O-])n(CC(C)C)c(=O)c1C#N.Cc1c(/C=N/[N-]c2nnnn2-c2ccccc2)c([O-])n(CC(C)C)c(=O)c1C#N.Cc1c(/C=N/[N-]c2nnnn2-c2ccccc2)c([O-])n(CC(C)C)c(=O)c1C#N.[Co+3].[Co+3].c1ccc2c[n+](CCCCCC[n+]3ccc4ccccc4c3)ccc2c1 [Complex Compound (17)]	0.98	0	0.88	0.98	0
CCn1c([O-])c(/C=N/[N-]C(=O)c2ccc(C(F)(F)F)cc2)c(C)c(C#N)c1=O.CCn1c([O-])c(/C=N/[N-]C(=O)c2ccc(C(F)(F)F)cc2)c(C)c(C#N)c1=O.CCn1c([O-])c(/C=N/[N-]C(=O)c2ccc(C(F)(F)F)cc2)c(C)c(C#N)c1=O.CCn1c([O-])c(/C=N/[N-]C(=O)c2ccc(C(F)(F)F)cc2)c(C)c(C#N)c1=O.[Co+3].[Co+3].c1cc2ccc3ccc[n+]4c3c2[n+](c1)CCC4 [Complex Compound (10)]	1.00	0	0.99	1.00	0.5
Cc1c(/C=N/[N-]c2nnnn2-c2ccccc2)c([O-])n(Cc2ccccc2)c(=O)c1C#N.Cc1c(/C=N/[N-]c2nnnn2-c2ccccc2)c([O-])n(Cc2ccccc2)c(=O)c1C#N.Cc1c(/C=N/[N-]c2nnnn2-c2ccccc2)c([O-])n(Cc2ccccc2)c(=O)c1C#N.Cc1c(/C=N/[N-]c2nnnn2-c2ccccc2)c([O-])n(Cc2ccccc2)c(=O)c1C#N.[Co+3].[Co+3].c1cc[n+]2c(c1)-c1cccc[n+]1CCC2 [Complex Compound (30)]	0.99	0	0.89	0.99	0
CCn1c([O-])c(/C=N/[N-]C(=O)c2ccc(C(F)(F)F)cc2)c(C)c(C#N)c1=O.CCn1c([O-])c(/C=N/[N-]C(=O)c2ccc(C(F)(F)F)cc2)c(C)c(C#N)c1=O.CCn1c([O-])c(/C=N/[N-]C(=O)c2ccc(C(F)(F)F)cc2)c(C)c(C#N)c1=O.CCn1c([O-])c(/C=N/[N-]C(=O)c2ccc(C(F)(F)F)cc2)c(C)c(C#N)c1=O.[Co+3].[Co+3].c1cc[n+]2c(c1)-c1cccc[n+]1CCC2 [Complex Compound (11)]	1.00	0	0.97	1.00	0
Cc1c(/C=N/[N-]c2nnnn2-c2ccccc2)c([O-])n(CC(C)C)c(=O)c1C#N.Cc1c(/C=N/[N-]c2nnnn2-c2ccccc2)c([O-])n(CC(C)C)c(=O)c1C#N.[Co+3].c1ccc(-c2nn(-c3ccccc3)[n+](-c3ccccc3)n2)cc1 [Complex Compound (15)]	1.01	0	0.88	1.00	0
CCn1c([O-])c(/C=N/[N-]C(=O)c2ccc(C(F)(F)F)cc2)c(C)c(C#N)c1=O.CCn1c([O-])c(/C=N/[N-]C(=O)c2ccc(C(F)(F)F)cc2)c(C)c(C#N)c1=O.CCn1c([O-])c(/C=N/[N-]C(=O)c2ccc(C(F)(F)F)cc2)c(C)c(C#N)c1=O.CCn1c([O-])c(/C=N/[N-]C(=O)c2ccc(C(F)(F)F)cc2)c(C)c(C#N)c1=O.Oc1ccc(-c2ccccc2)cc1-[n+]1ccc(-c2cc[n+](-c3cc(-c4ccccc4)ccc3O)cc2)cc1.[Co+3].[Co+3] [Complex Compound (9)]	1.00	0	0.97	1.00	0
CCCCn1c([O-])c(/C=N/[N-]c2nnnn2-c2ccccc2)c(CCC)c(C#N)c1=O.CCCCn1c([O-])c(/C=N/[N-]c2nnnn2-c2ccccc2)c(CCC)c(C#N)c1=O.CCCCn1c([O-])c(/C=N/[N-]c2nnnn2-c2ccccc2)c(CCC)c(C#N)c1=O.CCCCn1c([O-])c(/C=N/[N-]c2nnnn2-c2ccccc2)c(CCC)c(C#N)c1=O.[Co+3].[Co+3].c1cc2ccc3ccc[n+]4c3c2[n+](c1)CCC4 [Complex Compound (28)]	0.99	0	0.88	0.99	0

— patent US20130123494A1, “COMPLEX COMPOUND AND OPTICAL RECORDING MEDIUM CONTAINING SAME” (KH NEOCHEM CO., LTD., priority 2010, published 2013)
